Source: ChEMBL document CHEMBL1177683, “Synthesis and pharmacological evaluation of pyrazine N-acylhydrazone derivatives designed as novel analgesic and anti-inflammatory drug candidates” (2010)

Assays:
Assay type in all cases: functional
[1] = tested on: Mus musculus; experiment: Analgesic activity in Swiss mouse assessed as increase in latency of paw licking at 15 umol/kg, ip after 150 mins measured for 60 seconds by hot plate test (reference value: 5.1 +/- 0.4 seconds)
[2] = tested on: Mus musculus; experiment: Analgesic activity in Swiss mouse assessed as increase in latency of paw licking at 15 umol/kg, ip after 60 mins measured for 60 seconds by hot plate test (reference value: 4.9 +/- 0.5 seconds)
[3] = tested on: Mus musculus; experiment: Analgesic activity in Swiss mouse assessed as increase in latency of paw licking at 15 umol/kg, ip after 90 mins measured for 60 seconds by hot plate test (reference value: 5.9 +/- 0.8 seconds)
[4] = tested on: Mus musculus; experiment: Analgesic activity in Swiss mouse assessed as increase in latency of paw licking at 15 umol/kg, ip after 120 mins measured for 60 seconds by hot plate test (reference value: 5.6 +/- 0.5 seconds)

CN1CC[C@]23c4c5ccc(O)c4O[C@H]2[C@@H](O)C=C[C@H]3[C@H]1C5 [MORPHINE]
Time [1]: 9.7 s
Time [2]: 12.8 s
Time [3]: 10.3 s
Time [4]: 9.7 s
